Laboratory results taken from patent US20210038607A1, “OXADIAZOLYLTHIOPHENE DERIVATIVES USEFUL AS HISTONE DEACETYLASE INHIBITORS” (Karus Therapeutics Limited, priority 2018, published 2021).

Columns and labels:
[1] = biological target: T1, Human HDAC5 (Homo sapiens, UniProt Q9UQL6); experiment: HDAC5 biochemical assay, class IIa-specific substrate; settings: read-out: HDAC Isoform IC50 (nM) 5
T1 construct: full length with C-terminal His tag, MW=51.1 kDa; His (C); host or cells: baculovirus expression system
T1 sequence (Q9UQL6 656-1122 limits assumed): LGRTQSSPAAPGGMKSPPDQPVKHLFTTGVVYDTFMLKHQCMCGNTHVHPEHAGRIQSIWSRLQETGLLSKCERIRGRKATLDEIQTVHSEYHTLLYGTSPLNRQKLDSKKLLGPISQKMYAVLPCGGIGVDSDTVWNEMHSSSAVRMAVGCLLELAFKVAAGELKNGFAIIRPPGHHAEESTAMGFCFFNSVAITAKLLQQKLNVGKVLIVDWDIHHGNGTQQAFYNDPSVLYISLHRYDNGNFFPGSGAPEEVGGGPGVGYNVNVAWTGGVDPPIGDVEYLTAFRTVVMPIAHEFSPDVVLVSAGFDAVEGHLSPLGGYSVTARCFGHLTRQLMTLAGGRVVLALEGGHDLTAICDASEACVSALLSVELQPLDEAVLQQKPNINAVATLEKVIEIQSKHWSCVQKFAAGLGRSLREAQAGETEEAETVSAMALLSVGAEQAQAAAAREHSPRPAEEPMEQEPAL
In short: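 Full-length C-terminal His-tagged HDAC5 from baculovirus (0.05 ng/ul) incubated 30 min at room temperature with 50 μM Boc-Lys(trifluoroacetyl)-AMC and compound, Tris pH 8.0 buffer with BSA, 1% DMSO. Developer then releases AMC; fluorescence 360/460 nm.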

[2] = biological target: T2, Human HDAC10 (Homo sapiens, UniProt Q969S8); experiment: HDAC10 biochemical assay, AMC-labeled peptide substrate; settings: read-out: HDAC Isoform IC50 (nM) 10
T2 construct: Human HDAC10 (a.a. 1-481); GST (N); His (C); host or cells: baculovirus expression system
T2 sequence (Q969S8 1-481): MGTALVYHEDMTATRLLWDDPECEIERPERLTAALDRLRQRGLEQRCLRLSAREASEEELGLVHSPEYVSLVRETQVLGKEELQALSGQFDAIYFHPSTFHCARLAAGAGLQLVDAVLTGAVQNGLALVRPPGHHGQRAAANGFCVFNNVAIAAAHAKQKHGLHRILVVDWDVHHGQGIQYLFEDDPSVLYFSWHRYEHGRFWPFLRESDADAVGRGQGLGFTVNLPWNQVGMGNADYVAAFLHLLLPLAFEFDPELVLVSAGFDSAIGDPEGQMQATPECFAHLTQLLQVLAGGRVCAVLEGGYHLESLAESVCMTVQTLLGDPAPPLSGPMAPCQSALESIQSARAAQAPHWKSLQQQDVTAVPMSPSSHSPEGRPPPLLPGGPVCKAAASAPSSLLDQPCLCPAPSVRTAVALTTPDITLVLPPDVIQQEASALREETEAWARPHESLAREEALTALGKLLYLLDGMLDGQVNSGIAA
In short: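 Baculovirus-expressed GST/His-tagged human HDAC10 (aa 1-481), 12 ng/ul, incubated with 50 μM RHKK(Ac)AMC in Tris pH 8.0 buffer with BSA and 1% DMSO, 2 h at 30 °C. Developer then releases AMC, read at 360/460 nm.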

[3] = biological target: T3, Human HDAC1 (Homo sapiens, UniProt Q13547); experiment: HDAC1 biochemical assay, AMC-labeled peptide substrate; settings: read-out: HDAC Isoform IC50 (nM) 1
T3 construct: full length with C-terminal His-tag and C-terminal FLAG-tag; His (C); FLAG (C); host or cells: baculovirus expression system
T3 sequence (Q13547 whole entry, canonical isoform): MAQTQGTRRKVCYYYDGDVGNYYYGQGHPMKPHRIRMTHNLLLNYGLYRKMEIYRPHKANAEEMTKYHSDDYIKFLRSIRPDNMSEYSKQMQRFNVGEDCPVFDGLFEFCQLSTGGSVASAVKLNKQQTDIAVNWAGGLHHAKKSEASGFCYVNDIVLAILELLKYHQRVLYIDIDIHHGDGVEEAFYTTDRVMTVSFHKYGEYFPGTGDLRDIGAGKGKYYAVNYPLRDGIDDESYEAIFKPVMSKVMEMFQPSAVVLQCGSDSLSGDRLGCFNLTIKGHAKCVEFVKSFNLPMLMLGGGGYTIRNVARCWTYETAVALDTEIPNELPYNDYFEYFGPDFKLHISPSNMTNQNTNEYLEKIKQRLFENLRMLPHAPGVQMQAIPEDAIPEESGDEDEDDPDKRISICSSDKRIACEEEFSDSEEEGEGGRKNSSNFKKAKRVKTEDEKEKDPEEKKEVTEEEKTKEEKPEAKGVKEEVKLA
In short: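 Baculovirus-expressed full-length human HDAC1 with His and FLAG tags, 0.3 ng/ul, incubated 1 h at 30° C with compound and 50 μM RHKK(Ac)AMC in Tris pH 8.0 buffer with BSA and 1% DMSO. Developer then releases AMC from deacetylated substrate; fluorescence read at 360/460 nm.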

[4] = biological target: T4, Human HDAC11 (Homo sapiens, UniProt Q96DB2); experiment: HDAC11 biochemical assay, class IIa-specific substrate; settings: read-out: HDAC Isoform IC50 (nM) 11
T4 construct: Human HDAC11 (full length); His (N); host or cells: baculovirus expression system
T4 sequence (Q96DB2 1-347): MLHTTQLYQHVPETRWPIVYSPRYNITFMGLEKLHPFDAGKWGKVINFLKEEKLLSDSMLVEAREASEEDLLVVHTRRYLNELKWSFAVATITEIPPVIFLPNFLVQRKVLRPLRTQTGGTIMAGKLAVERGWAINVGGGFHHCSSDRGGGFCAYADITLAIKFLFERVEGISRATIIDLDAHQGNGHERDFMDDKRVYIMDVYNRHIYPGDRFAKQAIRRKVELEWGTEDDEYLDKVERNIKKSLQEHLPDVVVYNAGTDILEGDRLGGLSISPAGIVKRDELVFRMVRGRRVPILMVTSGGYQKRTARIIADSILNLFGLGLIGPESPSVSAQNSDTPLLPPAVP
In short: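 Full-length N-His human HDAC11 from baculovirus, 5 ng/μl, incubated with 50 μM Boc-Lys(trifluoroacetyl)-AMC for 30 min at 30 °C. Buffer: 50 mM Tris-HCl pH 8.0, 137 mM NaCl, 2.7 mM KCl, 1 mM MgCl2, 1 mg/mL BSA, 1% DMSO. Developer releases AMC; fluorescence read at 360/460 nm.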

[5] = biological target: T5, Human HDAC2 (Homo sapiens, UniProt Q92769); experiment: HDAC2 biochemical assay, AMC-labeled peptide substrate; settings: read-out: HDAC Isoform IC50 (nM) 2
T5 construct: full length with C-terminal GST-tag; GST (C); host or cells: baculovirus expression system
T5 sequence (Q92769 whole entry, canonical isoform): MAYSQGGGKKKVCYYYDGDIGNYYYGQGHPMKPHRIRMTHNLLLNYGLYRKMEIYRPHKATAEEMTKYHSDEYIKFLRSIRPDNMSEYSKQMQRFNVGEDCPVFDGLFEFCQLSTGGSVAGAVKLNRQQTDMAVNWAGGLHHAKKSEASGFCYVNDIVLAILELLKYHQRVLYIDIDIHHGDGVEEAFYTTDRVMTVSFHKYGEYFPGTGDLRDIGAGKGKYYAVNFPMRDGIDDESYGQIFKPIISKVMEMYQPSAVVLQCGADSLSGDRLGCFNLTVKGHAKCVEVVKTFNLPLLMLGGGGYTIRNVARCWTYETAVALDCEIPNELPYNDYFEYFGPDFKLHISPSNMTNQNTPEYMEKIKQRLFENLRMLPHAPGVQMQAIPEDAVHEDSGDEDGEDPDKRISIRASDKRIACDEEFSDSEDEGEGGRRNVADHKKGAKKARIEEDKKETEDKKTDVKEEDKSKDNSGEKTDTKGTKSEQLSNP
In short: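 Full-length human HDAC2 with C-terminal GST tag, baculovirus-expressed, at 0.07 ng/ul with 50 μM RHKK(Ac)AMC substrate in Tris-HCl pH8.0 buffer with BSA, 1% DMSO final. Incubated 1 hour at 30° C with compounds, then developer added; fluorescence read at 360/460 Ex/Em.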

[6] = biological target: T6, Human HDAC4 (Homo sapiens, UniProt P56524); experiment: HDAC4 biochemical assay, class IIa-specific substrate; settings: read-out: HDAC Isoform IC50 (nM) 4
T6 construct: amino acids 627-1085 with N-terminal GST tag; GST (N); host or cells: baculovirus expression system
T6 sequence (P56524 627-1084 limits assumed): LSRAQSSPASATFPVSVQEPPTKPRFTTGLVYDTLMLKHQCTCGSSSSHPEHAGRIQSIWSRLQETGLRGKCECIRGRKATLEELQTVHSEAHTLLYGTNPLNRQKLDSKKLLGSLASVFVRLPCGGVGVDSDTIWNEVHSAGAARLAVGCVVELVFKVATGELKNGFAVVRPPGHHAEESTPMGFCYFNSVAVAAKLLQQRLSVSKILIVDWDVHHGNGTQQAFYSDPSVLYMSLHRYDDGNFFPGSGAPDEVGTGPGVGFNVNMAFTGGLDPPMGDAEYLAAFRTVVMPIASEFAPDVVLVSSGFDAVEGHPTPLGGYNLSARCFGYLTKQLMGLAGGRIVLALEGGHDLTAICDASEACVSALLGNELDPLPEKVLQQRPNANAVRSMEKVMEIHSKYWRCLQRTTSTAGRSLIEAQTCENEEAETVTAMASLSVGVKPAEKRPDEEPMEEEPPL
In short: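 GST-tagged human HDAC4 (aa 627-1085, baculovirus) at 0.004 ng/ul was incubated 30 min at room temperature with 50 μM class IIa-specific substrate BOC-Lys(trifluoroacetyl)-AMC in Tris-HCl pH 8.0 buffer with BSA, 1% DMSO. Developer then released AMC, read at 360/460 nm.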

With `Cc1nccnc1N(Cc1ccc(-c2noc(C(F)(F)F)n2)s1)c1cnccn1` [Example BE, 3-Methyl-N-(pyrazin-2-yl)-N-({5-[5-(trifluoromethyl)-1,2,4-oxadiazol-3-yl]thiophen-2-yl}methyl)pyrazin-2-amine] the IC50 [1] was at most 500 nM, the IC50 [2] was over 10000 nM and the IC50 [3] was over 10000 nM. For the same compound, the IC50 [4] was over 10000 nM, the IC50 [5] was over 10000 nM and the IC50 [6] was at most 500 nM.

Compound `CN(C(=O)c1cnnc(N(Cc2ccc(-c3noc(C(F)(F)F)n3)s2)c2cnccn2)c1)S(C)(=O)=O` [Example GE, N-Methanesulfonyl-N-methyl-6-[(pyrazin-2-yl)({5-[5-(trifluoromethyl)-1,2,4-oxadiazol-3-yl]thiophen-2-yl}methyl)amino]pyridazine-4-carboxamide] has an IC50 [1] of at most 1000 nM, an IC50 [2] of over 10000 nM and an IC50 [3] of over 10000 nM. The IC50 [4] was over 10000 nM, the IC50 [5] was over 10000 nM and the IC50 [6] was at most 10000 nM.

Work on `O=C(c1ccc(N(Cc2ccc(-c3noc(C(F)(F)F)n3)s2)c2cnccn2)nn1)N1C[C@@H]2C[C@H]1C[S@@+]2[O-]` [Example FR, (1S,2R,4S)-5-{6-[(Pyrazin-2-yl)({5-[5-(trifluoromethyl)-1,2,4-oxadiazol-3-yl]thiophen-2-yl}methyl)amino]pyridazine-3-carbonyl}-2-thia-5-azabicyclo[2.2.1]heptan-2-ium-2-olate] yielded an IC50 [1] of at most 500 nM, an IC50 [2] of over 10000 nM and an IC50 [3] of at most 10000 nM. For the same compound, the IC50 [4] was over 10000 nM, the IC50 [5] was over 10000 nM and the IC50 [6] was at most 500 nM.

`O=C(c1cnnc(N(Cc2ccc(-c3noc(C(F)(F)F)n3)s2)c2cnccn2)c1)N1CC(F)(F)C1` [Example FT, 5-(3,3-Difluoroazetidine-1-carbonyl)-N-(pyrazin-2-yl)-N-({5-[5-(trifluoromethyl)-1,2,4-oxadiazol-3-yl]thiophen-2-yl}methyl)pyridazin-3-amine] showed an IC50 [1] of at most 1000 nM, an IC50 [2] of over 10000 nM and an IC50 [3] of over 10000 nM. The IC50 [4] was over 10000 nM, the IC50 [5] was over 10000 nM and the IC50 [6] was at most 10000 nM.

Compound `O=C(c1ccc(N(Cc2ccc(-c3noc(C(F)(F)F)n3)s2)c2cnccn2)nn1)N1CC(O)(C(F)(F)F)C1` [Example FK, 1-{6-[(Pyrazin-2-yl)({5-[5-(trifluoromethyl)-1,2,4-oxadiazol-3-yl]thiophen-2-yl}methyl)amino]pyridazine-3-carbonyl}-3-(trifluoromethyl)azetidin-3-ol] has an IC50 [1] of at most 500 nM, an IC50 [2] of over 10000 nM and an IC50 [3] of over 10000 nM. The IC50 [4] was over 10000 nM, the IC50 [5] was over 10000 nM and the IC50 [6] was at most 500 nM.
